Measured values reported in patent publication US20230047208A1, “RNA Splicing Modulation” (The General Hospital Corporation, priority 2020, published 2023).

Test system: wildtype (WT) human fibroblast cell lines
Test: Transcriptome-wide splicing by RNA sequencing (RNASeq), exon triplet PSI change;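 for Effect: six WT fibroblast lines treated seven days versus DMSO vehicle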;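 for T-PSI: T-PSI is average treated PSI after seven days of treatment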
Assay type: cell-based
Parameters: key to Effect: Exclusion; Inclusion; Unchanged
Description: FIG. 2A provides a representation of an exon triplet. Exon U is upstream of Exon X, which is upstream of Exon D. R1, R2 and R3 represent RNA sequencing (RNASeq) reads spanning the regions between two adjacent exons. UI1, I1X, XI2 and I2D are four regions flanking the four splice sites of the exon-triplet. Each flanking region consists of 25 exonic base pairs and 75 intronic base pairs.
FIG. 2B provides a volcano plot showing the ψ (PSI: Percent Spliced-In) changes in splicing after treatment with Compound (I). Each dot represents one of the 161,097 expressed exon triplets in human fibroblasts. The x axis represents the ψ changes after treatment and the y axis represents the False Discovery Rate (FDR) (log 10 transformed). […] The horizontal dashed line indicates an FDR of 0.1. The dots on the right side of the right vertical dashed line and above the horizontal dashed line represent the exon-triplets with an increase for Exon X inclusion (Δψ≥0.1 and FDR<0.1) while the dots on left side of the left vertical dashed line and above the horizontal dashed line represent an increase for Exon X exclusion (Δψ≤−0.1 and FDR<0.1). Black dots in-between the two vertical dashed lines represent exon-triplets unchanged from the treatment.
In some aspects, analysis is performed on data derived from the assay to measure the magnitude of splicing to determine the amount of exons spliced into an mRNA transcript that is produced in the presence of Compound (I) relative to the amount in the absence of Compound (I) or presence of a negative control. In a preferred aspect, the method utilized is calculation of change in Percent Spliced In (ΔPSI). […] The ΔPSI value is derived from the formula: […]
The values for “a” and “b” represent the number of reads supporting the probability for potential inclusion or exclusion of an exon in an RNA transcript. The “a” value is derived from the number of reads within an exon triplet covering, in 5′ to 3′ order: the last few bases (>1 nucleotide) of an upstream exon operably linked to the first few bases (>1 nucleotide) of a middle exon. The “b” value is derived from the number of reads within an exon triplet covering, in 5′ to 3′ order: the last few bases (>1 nucleotide) of the middle exon operably linked to the first few bases (>1 nucleotide) of a downstream exon. The number of reads will indicate whether the splice junction of a middle exon has been identified as potentially having a CNN Motif(s) by the CNN Model described herein, wherein the inclusion or exclusion of the middle exon may be modulated in the presence of Compound (I) to produce one or more mature RNA isoforms from the gene transcript. The value for “c” represents the number of reads supporting the exclusion of the middle exon.
The effect on splicing modulation and corresponding splice differences toward exon inclusion or exclusion was determined by counting the RNASeq reads covering two splice junctions of exon triplets (three consecutive exons: Exon U, Exon X, Exon D) and the corresponding intervening introns, then comparing the change in Percent Spliced In (ΔPSI or Δψ) of the middle exon (Exon X) after treatment (as shown in FIG. 2A)^52,53. 934 exon triplets were identified showing differential middle exon inclusion or exclusion in response to Compound (I) treatment. Of these, 254 were exon inclusion events (Δψ≥0.1 and FDR<0.1) and 680 were exon exclusion events (Δψ≤−0.1 and FDR<0.1) (as shown in FIG. 2B). […] The splicing results were evaluated by RT-PCR in independent replicate experiments, confirming all the calculated Δψ values. […]

[1] = NUTM2A-AS1 Exon 89067714-89067817
[2] = ORMDL1 Exon 190647740-190647849
[3] = OSBPL8 Exon 76853639-76853675, Intron1 76844760-76853638
[4] = OSBPL8 Exon 76853639-76853675, Intron1 76844769-76853638
[5] = OSER1-AS1 Exon 42846007-42846322
[6] = PACRGL Exon 20711306-20711396, Intron1 20706438-20711305
[7] = PACRGL Exon 20711306-20711396, Intron1 20709494-20711305

Question: Which T-PSI (NUTF2 Exon 67881181-67881359) does the source give for Clc1nc(NCc2ccncc2)c2cc[nH]c2n1 [Compound (I), 2-chloro-N-(pyridin-4-ylmethyl)-7H-pyrrolo[2,3-d]pyrimidin-4-amine] here?
Answer: The T-PSI was 0.104.

Question: What about the ΔPSI (NUTF2 Exon 67881181-67881359) of the same compound?
Answer: Its ΔPSI is −0.003.

Question: What about the Effect [1] of the same compound?
Answer: The Effect was “Exc”.

Question: And the T-PSI [1]?
Answer: Its T-PSI is 0.100.

Question: What about the ΔPSI [1] of the same compound?
Answer: Its ΔPSI is −0.120.

Question: What about the Effect (OARD1 Exon 41036580-41036692) of the same compound?
Answer: Its Effect is “Exc”.

Question: What about the T-PSI (OARD1 Exon 41036580-41036692) of the same compound?
Answer: Its T-PSI is 0.563.

Question: What about the ΔPSI (OARD1 Exon 41036580-41036692) of the same compound?
Answer: The ΔPSI was −0.267.

Question: And the Effect (OCRL Exon 128718321-128718344)?
Answer: Its Effect is “Inc”.

Question: And the T-PSI (OCRL Exon 128718321-128718344)?
Answer: Its T-PSI is 0.364.

Question: And the ΔPSI (OCRL Exon 128718321-128718344)?
Answer: Its ΔPSI is 0.260.

Question: And the Effect (ODF2 Exon 131231462-131231632)?
Answer: Its Effect is “Exc”.

Question: And the T-PSI (ODF2 Exon 131231462-131231632)?
Answer: The T-PSI was 0.872.

Question: What about the ΔPSI (ODF2 Exon 131231462-131231632) of the same compound?
Answer: Its ΔPSI is −0.102.

Question: What about the Effect (ODF2L Exon 86822127-86822285) of the same compound?
Answer: The Effect was “Exc”.

Question: And the T-PSI (ODF2L Exon 86822127-86822285)?
Answer: Its T-PSI is 0.514.

Question: And the ΔPSI (ODF2L Exon 86822127-86822285)?
Answer: Its ΔPSI is −0.272.

Question: And the Effect (OFD1 Exon 13781864-13781974)?
Answer: Its Effect is “Inc”.

Question: What about the T-PSI (OFD1 Exon 13781864-13781974) of the same compound?
Answer: The T-PSI was 0.981.

Question: What about the ΔPSI (OFD1 Exon 13781864-13781974) of the same compound?
Answer: The ΔPSI was 0.131.

Question: And the Effect (OPN3 Exon 241767722-241767881)?
Answer: Its Effect is “Unc”.

Question: What about the T-PSI (OPN3 Exon 241767722-241767881) of the same compound?
Answer: The T-PSI was 0.437.

Question: What about the ΔPSI (OPN3 Exon 241767722-241767881) of the same compound?
Answer: Its ΔPSI is −0.004.

Question: And the Effect (OPTN Exon 13150138-13150289)?
Answer: Its Effect is “Inc”.

Question: What about the T-PSI (OPTN Exon 13150138-13150289) of the same compound?
Answer: The T-PSI was 0.387.

Question: And the ΔPSI (OPTN Exon 13150138-13150289)?
Answer: The ΔPSI was 0.176.

Question: And the Effect (OPTN Exon 13150962-13151015)?
Answer: Its Effect is “Exc”.

Question: What about the T-PSI (OPTN Exon 13150962-13151015) of the same compound?
Answer: The T-PSI was 0.121.

Question: And the ΔPSI (OPTN Exon 13150962-13151015)?
Answer: The ΔPSI was −0.220.

Question: What about the Effect [2] of the same compound?
Answer: The Effect was “Exc”.

Question: What about the T-PSI [2] of the same compound?
Answer: Its T-PSI is 0.407.

Question: And the ΔPSI [2]?
Answer: Its ΔPSI is −0.295.

Question: And the Effect (OS9 Exon 58113882-58114046)?
Answer: Its Effect is “Exc”.

Question: And the T-PSI (OS9 Exon 58113882-58114046)?
Answer: Its T-PSI is 0.344.

Question: What about the ΔPSI (OS9 Exon 58113882-58114046) of the same compound?
Answer: Its ΔPSI is −0.181.

Question: What about the Effect [3] of the same compound?
Answer: The Effect was “Inc”.

Question: And the T-PSI [3]?
Answer: The T-PSI was 0.296.

Question: What about the ΔPSI [3] of the same compound?
Answer: The ΔPSI was 0.200.

Question: And the Effect [4]?
Answer: The Effect was “Inc”.

Question: What about the T-PSI [4] of the same compound?
Answer: Its T-PSI is 0.269.

Question: What about the ΔPSI [4] of the same compound?
Answer: The ΔPSI was 0.191.

Question: And the Effect [5]?
Answer: Its Effect is “Unc”.

Question: What about the T-PSI [5] of the same compound?
Answer: The T-PSI was 0.153.

Question: And the ΔPSI [5]?
Answer: The ΔPSI was 0.000.

Question: What about the Effect (P4HA2 Exon 131562390-131562914) of the same compound?
Answer: Its Effect is “Unc”.

Question: What about the T-PSI (P4HA2 Exon 131562390-131562914) of the same compound?
Answer: The T-PSI was 0.155.

Question: And the ΔPSI (P4HA2 Exon 131562390-131562914)?
Answer: The ΔPSI was −0.007.

Question: What about the Effect (P4HA2 Exon 131562625-131562914) of the same compound?
Answer: The Effect was “Unc”.

Question: What about the T-PSI (P4HA2 Exon 131562625-131562914) of the same compound?
Answer: The T-PSI was 0.160.

Question: What about the ΔPSI (P4HA2 Exon 131562625-131562914) of the same compound?
Answer: The ΔPSI was −0.007.

Question: And the Effect (PACRGL Exon 20709426-20709493)?
Answer: Its Effect is “Exc”.

Question: What about the T-PSI (PACRGL Exon 20709426-20709493) of the same compound?
Answer: The T-PSI was 0.666.

Question: And the ΔPSI (PACRGL Exon 20709426-20709493)?
Answer: Its ΔPSI is −0.179.

Question: What about the Effect [6] of the same compound?
Answer: Its Effect is “Exc”.

Question: And the T-PSI [6]?
Answer: Its T-PSI is 0.462.

Question: What about the ΔPSI [6] of the same compound?
Answer: The ΔPSI was −0.305.

Question: And the Effect [7]?
Answer: The Effect was “Exc”.

Question: And the T-PSI [7]?
Answer: The T-PSI was 0.563.

Question: And the ΔPSI [7]?
Answer: The ΔPSI was −0.242.

Question: What about the Effect (PACRGL Exon 20726431-20726511) of the same compound?
Answer: Its Effect is “Exc”.

Question: What about the T-PSI (PACRGL Exon 20726431-20726511) of the same compound?
Answer: The T-PSI was 0.095.

Question: What about the ΔPSI (PACRGL Exon 20726431-20726511) of the same compound?
Answer: The ΔPSI was −0.120.

Question: What about the Effect (PAM Exon 102309820-102310140) of the same compound?
Answer: Its Effect is “Exc”.

Question: What about the T-PSI (PAM Exon 102309820-102310140) of the same compound?
Answer: The T-PSI was 0.478.

Question: And the ΔPSI (PAM Exon 102309820-102310140)?
Answer: Its ΔPSI is −0.123.

Question: What about the Effect (PARD3 Exon 34625127-34625171) of the same compound?
Answer: Its Effect is “Unc”.

Question: And the T-PSI (PARD3 Exon 34625127-34625171)?
Answer: Its T-PSI is 0.805.

Question: And the ΔPSI (PARD3 Exon 34625127-34625171)?
Answer: The ΔPSI was −0.003.

Question: And the Effect (PARD3 Exon 34739245-34739376)?
Answer: Its Effect is “Exc”.

Question: And the T-PSI (PARD3 Exon 34739245-34739376)?
Answer: The T-PSI was 0.584.

Question: And the ΔPSI (PARD3 Exon 34739245-34739376)?
Answer: Its ΔPSI is −0.165.

Question: What about the Effect (PARL Exon 183551512-183551613) of the same compound?
Answer: The Effect was “Exc”.

Question: And the T-PSI (PARL Exon 183551512-183551613)?
Answer: Its T-PSI is 0.819.

Question: And the ΔPSI (PARL Exon 183551512-183551613)?
Answer: The ΔPSI was −0.118.

Question: What about the Effect (PARP6 Exon 72543186-72543295) of the same compound?
Answer: Its Effect is “Inc”.

Question: What about the T-PSI (PARP6 Exon 72543186-72543295) of the same compound?
Answer: The T-PSI was 0.902.
